Data from patent US20210170035A1, “METHOD OF TREATING CANCER BY TARGETING MYELOID-DERIVED SUPPRESSOR CELLS” (priority 2016, published 2021).
Read-outs that look alike come from different tables or passages of the source.

Key:
[1] = test system: TAMs/MDSCs; experiment: Nitric oxide assay (Greiss reagent) after in vitro TAMs/MDSCs screening; format: cell-based, mouse
Description: (§1) 10 million 4T1 cells in 300 μL PBS were injected into the peritoneal cavity. Peritoneal ascites were collected between day 7 and day 10 by peritoneal lavage. […] Cells were counted and ready for flow cytometry staining and in vitro screening.
(§2) Different concentrations of screening drugs listed in Table 2 were dissolved in the same medium and were added to each well containing 0.5 millions of cells in 300 μL medium. Wells containing 0.5 million cells in 300 μL medium without addition of drugs were kept as untreated control. Three extra wells were charged with 300 μL medium without cells and drugs to be kept as background control. […] At the end of incubation, supernatant was collected for IL-10 ELISA and nitric oxide assay. Cells were washed twice with 300 μL PBS, and were then ready for the arginase assay.
Nitric oxide production was measured with Greiss reagent as reported in Je-In Youn, Srinivas Nagaraj, Michelle Collazo, and Dmitry I. Gabrilovich, Subsets of Myeloid-Derived Suppressor Cells in Tumor Bearing Mice′, J Immunol. […] Briefly, after in vitro incubation of TAMs/MDSCs with different drugs, 50 μL of supernatant from each well was transferred into a 96-well plat bottom clear plate. 20 μL of Greiss reagent and 30 μL of DI water were added to each well with 50 μL of supernatant. The reaction solution was kept in the dark at room temperature for 30 min prior to a plate reader measurement. The absorbance at 548 nm is correlated to concentration of nitric oxide produced by TAMs/MDSCs. Results are shown in FIG. 9, FIG. 10, FIG. 11 and FIG. 14.

[2] = test system: TAMs/MDSCs; experiment: Arginase assay after in vitro TAMs/MDSCs screening; format: cell-based, mouse
Description: as §1, §2
Briefly, after in vitro incubation of isolated TAMs/MDSCs with different drugs in 96 well plates, cells were washed twice with 300 μL PBS. […] Subsequently, 50 μL of the lysate solutions were transferred to a new V-shape 96 well plate. 50 μL of arginase activation solution (10 mM MnCl2/50 mM Tris.Cl (pH 7.5)) were added into the cell lysate. The enzyme was activated by heating for 10 min at 56° C. Arginine hydrolysis was conducted by incubating 25 μL of the activated solution with 25 μL of arginase substrate solution (0.5 M L-arginine (pH 9.7)) at 37° C. for 60 min with mild shaking. After cooling to room temperature, 10 μL of the reaction solution was then diluted into 90 μL of PBS. 10 μL of this diluted solution was transferred to a 96 well flat bottom clear plate. 200 μL of urea reagents were added to each well. After incubation in the dark at room temperature for 10 min, the urea concentration was measured at 520 nm by plate reader.

[3] = test system: TAMs/MDSCs; experiment: IL-10 ELISA assay after in vitro TAMs/MDSCs screening; format: cell-based, mouse; settings: co-culture with drug; absorbance at 492 nm
Description: as §1
Cells isolated from the peritoneal model were re-suspended in completed RPMI 1640 medium supplemented with 10 ng/mL mouse GM-CSF and seeded into 96 well plates. Different concentrations of screening drugs listed in Table 2 were dissolved in the same medium and were added to each well containing 0.5 millions of cells in 300 μL medium. Wells containing 0.5 million cells in 300 μL medium without addition of drugs were kept as untreated control. Three extra wells were charged with 300 μL medium without cells and drugs to be kept as background control. Cells were then incubated at 37° C. in a humidified 95% air 5% CO2 atmosphere for 24 hours to 48 hours. At the end of incubation, supernatant was collected for IL-10 ELISA and nitric oxide assay. Cells were washed twice with 300 μL PBS, and were then ready for the arginase assay.
IL-10 production by TAMs/MDSCs after in vitro incubation with different compounds was determined by ELISA assay following the protocol provided with the Mouse IL-10 DuoSet ELISA by R&D Systems. Briefly, a high affinity 96-well plate was coated with 100 μL of diluted capture antibody per well with the working concentration of 4 μg/mL in PBS without carrier protein. The plate was sealed, and incubated overnight at room temperature. Each well was aspirated, and washed three times with 400 μL of wash buffer (0.05% Tween®20 in PBS, pH 7.2-7.4) using a squirt bottle. After the last wash, remaining wash buffer was removed by inverting the plate and blotting it against clean paper towels. The plates were blocked by adding 300 μL of reagent diluent (1% BSA in PBS, pH 7.2-7.4) to each well, and incubated at room temperature for 1 hour. Aspiration/wash was repeated three times in the same manner as previously described. The plates were ready for sample addition. 100 μL of sample supernatant from TAMs/MDSCs in vitro screening were added to each well. The plate was covered with an adhesive strip and incubated for 2 hours at room temperature. The previously mentioned aspiration/wash procedure was repeated three times. 100 μL of the detection antibody with the concentration of 300 ng/mL in reagent diluent was added to each well. The plate was covered with a new adhesive strip and incubated for 2 hours at room temperature. The previously mentioned aspiration/wash procedure was repeated three times. 100 μL of working dilution of streptavidin-HRP (1 to 40 dilution in reagent dilute) was added to each well. The plate was covered and incubated for 20 minutes at room temperature in dark. The previously mentioned aspiration/wash procedure was repeated three times. 200 μL of substrate solution (one bag of silver and golden tablets of OPD in 20 mL of DI water) was added to each well. The plate was incubated for 20 minutes at room temperature in dark. 50 μL of stop solution (3M HCl) was added to each well. The plate was gently tapped to ensure thorough mixing. The IL-10 concentration was proportional to the optical density determined by a microplate reader at 492 nm.

[4] = test system: human MDSCs; experiment: IL-10 production by in vitro induced human MDSCs; format: cell-based; settings: cultured with drugs for 2 days
Description: Human PBMCs from healthy donor were isolated by density gradient centrifugation following standard procedure: […]
Blood was dilute blood with PBS (1:2 dilutions). 15 ml of Ficoll was transferred to a 50 ml tube. 35 ml of diluted blood was carefully placed over the Ficoll medium. The tube was centrifuged at 400 g for 30 min, at 24° C. without brake. After the centrifuge stoped, the tube was carefully removed from the centrifuge while not disturbing the layering. The PBMCs were carefully remove from the tube and transferred to a new 50 mL conical tube. Isolated PBMCs were washed with PBS and centrifuged at 300 g for 10 min. The supernatant was decanted. The pellet was washed once again in PBS and centrifuged at 200 g for 15 min. The isolated PBMCs were counted with the hemocytometer.
Isolated PBMCs were further purified by adhesion in serum free medium for 4 hours at 37° C. at a density of 3×10^6 cell/ml. After removing the suspension cells, adhered PBMCs were cultured in completed RPMI-1640 supplied with 10 ng/ml of IL-6 and GM-CSF for 7 days. Human MDSCs were then sorted by flow as CD33+ cells. Normal human macrophages were differentiated by co-culture PBMCs with completed RPMI-1640 medium for 7 days.
Human MDSCs were cultured with selected drugs for 2 days. The IL-10 production by MDSCs was measured and plotted vs drug concentrations.

[5] = test system: F4/80+ macrophages; experiment: Intracellular staining of arginase on F4/80+ macrophages from 4T1 solid tumor; format: in vivo, balb/c mice; settings: tumor digestion at end of therapeutic study
Description: Intracellular arginase staining: Cell surface markers for TAMs/MDSCs were labeled following procedures mentioned previously. 0.1 μL fixable viability dye eFluor® 660 was added together with antibody cocktails. After washing with PBS, cells were fixed with 4% formaldehyde in 500 μL of PBS for 15 min at 4° C. Cells were spun down to remove fixing solution. Cells were washed two times with 500 μL washing buffer containing 0.1 M glycine and 0.05% sodium azide. After being spun down a final time, cells were added 1 mL permeabilization solution containing 0.1 M glycine, 0.05% sodium azide and 0.1% triton-100. Permeabilization was performed at room temperature for 5 min. Permeabilized cells were spun down at 1500 rpm for 1 min, and the cells were washed three times with 1 mL blocking buffer containing 0.05 M glycine, 0.05% sodium azide and 0.2% gelatin. Cells were then re-suspended in 1 mL blocking buffer at 4° C. overnight to block non-specific intracellular binding. Cells were then spun down at 1500 rpm for 1 min to remove the supernatant and another 100 μL blocking buffer containing 1 μL FITC-arginase was added. Cells were kept in the dark at 4° C. overnight. After being spun down at 1500 rpm for 1 min, cells were washed with 1 mL blocking buffer and were then ready for flow cytometry analysis (BD Accuri C6™ flow cytometer). […]

[6] = test system: F4/80+CD86+ : F4/80+CD206+ macrophages; experiment: Ratio of M1 to M2 macrophages in 4T1 solid tumor; format: in vivo, balb/c mice; settings: tumor digestion at end of therapeutic study
Description: The ratio of M1 to M2 macrophages (F4/80+CD86+: F4/80+CD206+) was tested in groups of untreated control, FA-TLR7 agonist, FA-PI3K inhibitor, FA-Tubulysin and combination as well as competition groups.
As described in the previous methods part, after tumor digestion at the end of therapeutic study, isolated cells were stained by F4/80 macrophage marker and M1 (CD86), M2 (CD206) markers. Macrophages in a tumor environment have been considered as a mainly M2 macrophage function, which can support tumor growth and suppress the immune response. On the other hand, M1 macrophages have been considered to be able to eliminate tumor cells and stimulate an anti-cancer immune response. Therefore, to study the M1 to M2 macrophage ratio is very important for targeting FR-β positive TAMs/MDSCs. […] Therefore, it could be concluded that by targeting FR+ TAMs/MDSCs in 4T1 solid tumor, the three classes of FA-conjugated […] are able to convert immunosuppression M2 macrophages environment to an anti-cancer M1 macrophages environment, which would contribute to the slow growth of a tumor.

[7] = test system: MDSCs (CD11b+Gr1+); experiment: MDSCs population (CD11b+Gr1+) in 4T1 solid tumor; format: in vivo, balb/c mice; settings: tumor digestion at end of therapeutic study
Description: The MDSCs population (CD11b+Gr1+) was tested in groups of untreated control, FA-TLR7 agonist, FA-PI3K inhibitor, FA-Tubulysin and combination as well as competition groups.
As described in previous methods part, after tumor digestion at the end of therapeutic study, isolated cells were stained by MDSCs markers CD11b+Gr1+, see FIG. 26.

[8] = test system: 4T1 solid tumor
Description: 4T1 solid tumor model: Female balb/c mice at the age of 6 to 8 weeks were kept on a folate deficient diet for 2 weeks. Before tumor implantation, fur on the left side of the mouse body was removed by an electric trimmer. 0.05 million 4T1 cells suspended in 50 μL completed RPMI 1640 medium were subcutaneously implanted near the mammary fat pad. Treatment was commenced at day 6 when the volume of tumor reached around 20 to 50 mm^3.
Treatment was continued for 2 weeks. Tumor volume was measured every day.
Treatment was conducted by i.v. injection of 100 μl of 10 nmol FA-TLR7 agonist in PBS for 5 days per week starting at day 6 after tumor implantation (subcutaneous, 0.05 million cells/mouse). Treatment was continued for 2 weeks. Competition group was conducted at the same schedule by co-injection of 200 times more competitors (FA-PEG-NH2) with 10 nmol of FA-TLR7 agonist. The total injection volume was 100 μl. Tumor volume was measured every day.
Treatment was conducted by i.v. injection of 100 μl of 30 nmol FA-tubulysin in PBS for 5 days per week starting at day 6 after tumor implantation (subcutaneous, 0.05 million cells/mouse). Treatment was continued for 2 weeks. Competition group was conducted at the same schedule by co-injection of 200 times more competitors (FA-PEG-NH2) with 30 nmol of FA-tubulysin. The total injection volume was 100 μl. Tumor volume was measured every day.
Treatment was conducted by i.v. injection of 100 μl of 10 nmol FA-PI3K inhibitor in PBS for 5 days per week starting at day 6 after tumor implantation (subcutaneous, 0.05 million cells/mouse). Treatment was continued for 2 weeks. Competition group was conducted at the same schedule by co-injection of 200 times more competitors (FA-PEG-NH2) with 10 nmol of FA-PI3K inhibitor. The total injection volume was 100 μl. Tumor volume was measured every day.

[9] = co-culture with drug, absorbance at 548 nm
[10] = co-culture with drug, absorbance at 520 nm

Row | Compound | nitric oxide production by TAMs/MDSCs in vitro [1, 9] | arginase production by TAMs/MDSCs in vitro [2, 10] | IL-10 production by TAMs/MDSCs in vitro [3] | IL-10 production by human MDSCs [4] | also measured
1 | CC1CCN=C(N)S1 (centres unmarked) [AMT] | efficiently decrease nitric oxide production |  |  |  | 
2 | NC(=O)c1cnc(NCCc2ccc(O)c(Cl)c2)nc1NCc1ccccc1 [AS1517499] | efficiently decrease nitric oxide production | efficiently decrease arginase production | efficiently decrease IL-10 production |  | 
3 | Cn1c(=O)n(-c2ccc(C(C)(C)C#N)cc2)c2c3cc(-c4cnc5ccccc5c4)ccc3ncc21 [BEZ235] | efficiently decrease nitric oxide production | efficiently decrease arginase production | efficiently decrease IL-10 production | decreasing IL-10 production | 
4 | Cc1ccc(-n2nc(C(C)(C)C)cc2NC(=O)Nc2ccc(OCCN3CCOCC3)c3ccccc23)cc1 [BIRB796] | efficiently decrease nitric oxide production | efficiently decrease arginase production | efficiently decrease IL-10 production |  | 
5 | CCCCNc1nc(N)c2[nH]c(=O)n(Cc3ccc(C(=O)NCC(=O)NCCCNCCCCNCCCN)cc3)c2n1 [CL307] |  | efficiently decrease arginase production |  |  | 
6 | Cc1c(CN2CCN(C(=O)C(C)OC(=O)OCCSSCC(NC(=O)CCC(NC(=O)c3ccc(NCc4cnc5nc(N)[nH]c(=O)c5n4)cc3)C(=O)O)C(=O)O)CC2)sc2c(N3CCOCC3)nc(-c3cnc(N)nc3)nc12 (centres unmarked) [FA-PI3K inhibitor] |  |  |  |  | arginase+F4/80+ cell population in live cells vs untreated control [5]: dramatically decreased; M1 to M2 macrophages ratio vs untreated control [6]: dramatically increased; MDSCs population (CD11b+Gr1+) vs untreated control [7]: no difference; anti-cancer effect on co-injection of 200 times more competitor (FA-PEG-NH2) ([8]; competition group, same schedule): can be competed; tumor growth, therapeutic study ([8]; i.v. 5 days per week for 2 weeks from day 6, 10 nmol FA-TLR7 agonist, 10 nmol FA-PI3K inhibitor, 30 nmol FA-tubulysin): tumor growth was slowed down
7 | Cc1c(CN2CCN(C(=O)[C@H](C)O)CC2)sc2c(N3CCOCC3)nc(-c3cnc(N)nc3)nc12 [GDC-0980] | best candidate that can efficiently decrease nitric oxide | best candidate that can efficiently decrease arginase | best candidate that can efficiently decrease IL-10 | decreasing IL-10 production | 
8 | CO[C@H]1C[C@@H]2CC[C@@H](C)[C@@](O)(O2)C(=O)C(=O)N2CCCC[C@H]2C(=O)O[C@H]([C@H](C)C[C@@H]2CC[C@@H](OCCO)[C@H](OC)C2)CC(=O)[C@H](C)/C=C(\C)[C@@H](O)[C@@H](OC)C(=O)[C@H](C)C[C@H](C)/C=C/C=C/C=C/1C [everolimus] | efficiently decrease nitric oxide production |  |  |  | 
9 | Nc1cccc2c1CN(C1CCC(=O)NC1=O)C2=O (centres unmarked) [lenalidomide] |  |  | efficiently decrease IL-10 production |  | 
10 | CN(Cc1cnc2nc(N)nc(N)c2n1)c1ccc(C(=O)N[C@@H](CCC(=O)O)C(=O)O)cc1 [methotrexate] | efficiently decrease nitric oxide production |  |  |  | 
11 | CC[C@H](C)[C@H](NC(=O)[C@H]1CCCCN1C)C(=O)N(COC(=O)CC(C)C)[C@H](C[C@@H](OC(C)=O)c1nc(C(=O)N[C@@H](Cc2ccc(C)cc2)C[C@H](C)C(=O)O)cs1)C(C)C [tubulysin] |  |  | efficiently decrease IL-10 production | decreasing IL-10 production | arginase production by TAMs/MDSCs in vitro [2]: efficiently decrease arginase production; nitric oxide production by TAMs/MDSCs in vitro [1]: efficiently decrease nitric oxide production
12 | CC[C@]1(O)C[C@@H]2CN(CCc3c([nH]c4ccccc34)[C@@](C(=O)OC)(c3cc4c(cc3OC)N(C)[C@H]3[C@@](O)(C(=O)OC)[C@H](OC(C)=O)[C@]5(CC)C=CCN6CC[C@]43[C@@H]65)C2)C1 [vinblastine] |  |  |  | decreasing IL-10 production | 
